In ChEMBL document CHEMBL1697723, “A predictive ligand-based Bayesian model for human drug-induced liver injury” (Drug Metab Dispos, 2010):
Starred links: 1 amine or outer side, 2 acyl side, 3 side chain; linkers in the order of their positions; H or OH if unused. Positions of bridges follow the written chain, without caps; N, C: chain ends. Non-standard residues stand in square brackets, D forms with d. Residues, ends and D or L forms follow the SMILES beside them. Chains are numbered I, II in the order given. Actinocin(9to1) = Cc1c2oc3c(C)ccc(C(=O)[*:1])c3nc-2c(C(=O)[*:2])c(N)c1=O; NMeV = CN[C@H](C(=O)O)C(C)C; Sar = CNCC(=O)O

The compounds below were run on Hepatotoxicity (assay: Human drug-induced liver injury (DILI) modelling dataset from Ekins et al). Conditions: not given.
`CN(C)[C@@H]1C(O)=C(C(N)=O)C(=O)[C@@]2(O)C(O)=C3C(=O)c4c(O)ccc(Cl)c4[C@@](C)(O)[C@H]3C[C@@H]12.Cl` [CHLORTETRACYCLINE HYDROCHLORIDE] was tested, and the Hepatotoxicity was “DILI positive (training set)”.
With `Cc1cc(C2CCCCC2)n(O)c(=O)c1` [CICLOPIROX] the Hepatotoxicity was “DILI negative (training set)”.
For `CC1(COc2ccc(CC3SC(=O)NC3=O)cc2)CCCCC1` (configuration not stated) [CIGLITAZONE], the Hepatotoxicity was “DILI positive (test set)”.
In the case of `O=C(O)c1cc(-c2ccccc2)nc2ccccc12` [CINCHOPHEN], the Hepatotoxicity is reported as “DILI positive (test set)”.
With `CC(C)(Oc1ccc(C2CC2(Cl)Cl)cc1)C(=O)O` (configuration not stated) [CIPROFIBRATE] the Hepatotoxicity was “DILI positive (training set)”.
In the case of `COc1cc(N)c(Cl)cc1C(=O)NC1CCN(CCCOc2ccc(F)cc2)CC1OC` (configuration not stated) [CISAPRIDE], the Hepatotoxicity is reported as “DILI negative (training set)”.
With `CN(C)CCCC1(c2ccc(F)cc2)OCc2cc(C#N)ccc21` (configuration not stated) [CITALOPRAM] the Hepatotoxicity was “DILI negative (training set)”.
In the case of `C[N+](C)(C)CCOP(=O)(O)OP(=O)([O-])OC[C@H]1O[C@@H](n2ccc(N)nc2=O)[C@H](O)[C@@H]1O` [CITICOLINE], the Hepatotoxicity is reported as “DILI negative (test set)”.
With `Nc1nc(Cl)nc2c1ncn2[C@H]1C[C@H](O)[C@@H](CO)O1` [CLADRIBINE] the Hepatotoxicity was “DILI negative (training set)”.
With `CC[C@H]1OC(=O)[C@H](C)[C@@H](O[C@H]2C[C@@](C)(OC)[C@@H](O)[C@H](C)O2)[C@H](C)[C@@H](O[C@@H]2O[C@H](C)C[C@H](N(C)C)[C@H]2O)[C@](C)(OC)C[C@@H](C)C(=O)[C@H](C)[C@@H](O)[C@]1(C)O` [CLARITHROMYCIN] the Hepatotoxicity was “DILI positive (test set)”.
In the case of `CN1CCC[C@@H]1CCO[C@](C)(c1ccccc1)c1ccc(Cl)cc1.O=C(O)/C=C/C(=O)O` [CLEMASTINE FUMARATE], the Hepatotoxicity is reported as “DILI negative (test set)”.
In the case of `NC1CCN(c2c(F)cc3c(=O)c(C(=O)O)cn(C4CC4)c3c2Cl)C1` (configuration not stated) [CLINAFLOXACIN], the Hepatotoxicity is reported as “DILI negative (training set)”.
With `CCC[C@@H]1C[C@@H](C(=O)N[C@@H]([C@H]2O[C@H](SC)[C@H](O)[C@@H](O)[C@H]2O)[C@H](C)Cl)N(C)C1.Cl` [CLINDAMYCIN HYDROCHLORIDE] the Hepatotoxicity was “DILI positive (test set)”.
In the case of `CCOC(=O)C(C)(C)Oc1ccc(Cl)cc1` [CLOFIBRATE], the Hepatotoxicity is reported as “DILI positive (test set)”.
`CCN(CC)CCOc1ccc(C(=C(Cl)c2ccccc2)c2ccccc2)cc1` [CLOMIPHENE] was tested, and the Hepatotoxicity was “DILI positive (training set)”.
`CN(C)CCCN1c2ccccc2CCc2ccc(Cl)cc21` [CLOMIPRAMINE] was tested, and the Hepatotoxicity was “DILI positive (training set)”.
With `Clc1ccccc1C(c1ccccc1)(c1ccccc1)n1ccnc1` [CLOTRIMAZOLE] the Hepatotoxicity was “DILI negative (training set)”.
With `Cc1onc(-c2ccccc2Cl)c1C(=O)N[C@@H]1C(=O)N2[C@@H]1SC(C)(C)[C@@H]2C(=O)[O-].O.[Na+]` [CLOXACILLIN SODIUM] the Hepatotoxicity was “DILI positive (test set)”.
`CN1CCN(C2=Nc3cc(Cl)ccc3Nc3ccccc32)CC1` [CLOZAPINE] was tested, and the Hepatotoxicity was “DILI positive (training set)”.
With `COc1cc2c(c(OC)c1OC)-c1ccc(OC)c(=O)cc1[C@@H](NC(C)=O)CC2` [COLCHICINE] the Hepatotoxicity was “DILI negative (training set)”.
For `O=C(O)c1cc(=O)c2c(OCC(O)COc3cccc4oc(C(=O)O)cc(=O)c34)cccc2o1` [CROMOLYN], the Hepatotoxicity was “DILI negative (training set)”.
`CN1CCN(C(c2ccccc2)c2ccccc2)CC1` [CYCLIZINE] was tested, and the Hepatotoxicity was “DILI positive (test set)”.
`CN1CCC(=C2c3ccccc3C=Cc3ccccc32)CC1.Cl` [CYPROHEPTADINE HYDROCHLORIDE] was tested, and the Hepatotoxicity was “DILI positive (training set)”.
`CC(=O)O[C@]1(C(C)=O)CC[C@H]2[C@@H]3C=C(Cl)C4=CC(=O)[C@@H]5C[C@@H]5[C@]4(C)[C@H]3CC[C@@]21C` [CYPROTERONE ACETATE] was tested, and the Hepatotoxicity was “DILI positive (training set)”.
For `C=C(C)[C@H]1CC=C(C)CC1` [D-LIMONENE], the Hepatotoxicity was “DILI positive (test set)”.
`CN(C)/N=N/c1[nH]cnc1C(N)=O` [DACARBAZINE] was tested, and the Hepatotoxicity was “DILI positive (test set)”.
With `Cc1c2oc3c(C)ccc(C(=O)N[C@@H]4C(=O)N[C@H](C(C)C)C(=O)N5CCC[C@H]5C(=O)N(C)CC(=O)N(C)[C@@H](C(C)C)C(=O)O[C@@H]4C)c3nc-2c(C(=O)N[C@@H]2C(=O)N[C@H](C(C)C)C(=O)N3CCC[C@H]3C(=O)N(C)CC(=O)N(C)[C@@H](C(C)C)C(=O)O[C@@H]2C)c(N)c1=O` [DACTINOMYCIN] (I: T[dV]P[Sar][NMeV] / II: T[dV]P[Sar][NMeV]; ester I:1-I:C, II:1-II:C; linker I:N-II:N via Actinocin(9to1)) the Hepatotoxicity was “DILI positive (test set)”.
`C#C[C@]1(O)CC[C@H]2[C@@H]3CCC4=Cc5oncc5C[C@]4(C)[C@H]3CC[C@@]21C` [DANAZOL] was tested, and the Hepatotoxicity was “DILI positive (training set)”.
`O=C1CN(/N=C/c2ccc(-c3ccc([N+](=O)[O-])cc3)o2)C(=O)[N-]1.[Na+]` [DANTROLENE SODIUM] was tested, and the Hepatotoxicity was “DILI positive (training set)”.
In the case of `CC(=O)N(O)CCCCCNC(=O)CCC(=O)N(O)CCCCCNC(=O)CCC(=O)N(O)CCCCCN.CS(=O)(=O)O` [DEFEROXAMINE MESYLATE], the Hepatotoxicity is reported as “DILI positive (training set)”.
In the case of `CN(C)[C@@H]1C(O)=C(C(N)=O)C(=O)[C@@]2(O)C(O)=C3C(=O)c4c(O)ccc(Cl)c4[C@@H](O)[C@H]3C[C@@H]12.Cl` [DEMECLOCYCLINE HYDROCHLORIDE], the Hepatotoxicity is reported as “DILI positive (training set)”.
With `C[C@@H]1C[C@H]2[C@@H]3CCC4=CC(=O)C=C[C@]4(C)[C@@]3(F)[C@@H](O)C[C@]2(C)[C@@]1(O)C(=O)CO` [DEXAMETHASONE] the Hepatotoxicity was “DILI negative (training set)”.
In the case of `C[C@H](N)Cc1ccccc1.C[C@H](N)Cc1ccccc1.O=S(=O)(O)O` [DEXTROAMPHETAMINE SULFATE], the Hepatotoxicity is reported as “DILI positive (test set)”.
`Br.COc1ccc2c(c1)[C@]13CCCC[C@@H]1[C@H](C2)N(C)CC3.O` [DEXTROMETHORPHAN HYDROBROMIDE] was tested, and the Hepatotoxicity was “DILI negative (training set)”.
With `Cc1onc(-c2c(Cl)cccc2Cl)c1C(=O)N[C@@H]1C(=O)N2[C@@H]1SC(C)(C)[C@@H]2C(=O)[O-].O.[Na+]` [DICLOXACILLIN SODIUM] the Hepatotoxicity was “DILI positive (test set)”.
In the case of `O=c1[nH]cnc2c1ncn2[C@H]1CC[C@@H](CO)O1` [DIDANOSINE], the Hepatotoxicity is reported as “DILI positive (training set)”.
In the case of `CCN(CC)C(=O)N1CCN(C)CC1` [DIETHYLCARBAMAZINE], the Hepatotoxicity is reported as “DILI positive (training set)”.
`C[C@H]1O[C@@H](O[C@H]2[C@@H](O)C[C@H](O[C@H]3[C@@H](O)C[C@H](O[C@H]4CC[C@@]5(C)[C@H](CC[C@@H]6[C@@H]5C[C@@H](O)[C@]5(C)[C@@H](C7=CC(=O)OC7)CC[C@]65O)C4)O[C@@H]3C)O[C@@H]2C)C[C@H](O)[C@@H]1O` [DIGOXIN] was tested, and the Hepatotoxicity was “DILI negative (training set)”.
For `COc1ccc([C@@H]2Sc3ccccc3N(CCN(C)C)C(=O)[C@@H]2OC(C)=O)cc1.Cl` [DILTIAZEM HYDROCHLORIDE], the Hepatotoxicity was “DILI negative (training set)”.
For `O=C1CCC(=O)N1c1cc(Cl)cc(Cl)c1` [DIMETHACHLON], the Hepatotoxicity was “DILI positive (test set)”.
`CCOC(=O)C1(c2ccccc2)CCN(CCC(C#N)(c2ccccc2)c2ccccc2)CC1.Cl` [DIPHENOXYLATE HYDROCHLORIDE] was tested, and the Hepatotoxicity was “DILI negative (test set)”.
For `CC(C)N(CCC(C(N)=O)(c1ccccc1)c1ccccn1)C(C)C.O=P(O)(O)O` (configuration not stated) [DISOPYRAMIDE PHOSPHATE], the Hepatotoxicity was “DILI positive (training set)”.
`CC(CCc1ccc(O)cc1)NCCc1ccc(O)c(O)c1.Cl` (configuration not stated) [DOBUTAMINE HYDROCHLORIDE] was tested, and the Hepatotoxicity was “DILI negative (training set)”.
For `COc1cc2c(cc1OC)C(=O)C(CC1CCN(Cc3ccccc3)CC1)C2` (configuration not stated) [DONEPEZIL], the Hepatotoxicity was “DILI negative (training set)”.
In the case of `COc1cccc2c1C(=O)c1c(O)c3c(c(O)c1C2=O)C[C@@](O)(C(=O)CO)C[C@@H]3O[C@H]1C[C@H](N)[C@H](O)[C@H](C)O1.Cl` [DOXORUBICIN HYDROCHLORIDE], the Hepatotoxicity is reported as “DILI positive (test set)”.
In the case of `COc1cccc2c1C(=O)c1c(O)c3c(c(O)c1C2=O)C[C@@](O)(C(=O)CO)C[C@@H]3O[C@H]1C[C@H](N)[C@H](O)[C@H](C)O1` [DOXORUBICIN], the Hepatotoxicity is reported as “DILI negative (test set)”.
With `Clc1ccc(COC(Cn2ccnc2)c2ccc(Cl)cc2Cl)cc1.O=[N+]([O-])O` (configuration not stated) [ECONAZOLE NITRATE] the Hepatotoxicity was “DILI negative (test set)”.
In the case of `CC[N+](C)(C)c1cccc(O)c1.[Cl-]` [EDROPHONIUM CHLORIDE], the Hepatotoxicity is reported as “DILI negative (training set)”.
With `CCN(CC)C(=O)/C(C#N)=C/c1cc(O)c(O)c([N+](=O)[O-])c1` [ENTACAPONE] the Hepatotoxicity was “DILI negative (test set)”.
With `COc1cccc2c1C(=O)c1c(O)c3c(c(O)c1C2=O)C[C@@](O)(C(=O)CO)C[C@@H]3O[C@H]1C[C@H](N)[C@@H](O)[C@H](C)O1` [EPIRUBICIN] the Hepatotoxicity was “DILI negative (test set)”.
For `CCCCc1ncc(/C=C(\Cc2cccs2)C(=O)O)n1Cc1ccc(C(=O)O)cc1` [EPROSARTAN], the Hepatotoxicity was “DILI negative (test set)”.
In the case of `C[C@@H](CO)NC(=O)[C@@H]1C=C2c3cccc4[nH]cc(c34)C[C@H]2N(C)C1.O=C(O)/C=C\C(=O)O` [ERGONOVINE MALEATE], the Hepatotoxicity is reported as “DILI negative (training set)”.

Same assay, conditions: Liver
With `CN/C(=N/CCSCc1nc[nH]c1C)NC#N` [CIMETIDINE] the Hepatotoxicity was “DILI negative (training set)”.
`Cl.Clc1cccc(Cl)c1NC1=NCCN1` [CLONIDINE HYDROCHLORIDE] was tested, and the Hepatotoxicity was “DILI positive (training set)”.
For `O=P1(N(CCCl)CCCl)NCCCO1` (configuration not stated) [CYCLOPHOSPHAMIDE ANHYDROUS], the Hepatotoxicity was “DILI positive (training set)”.
`Nc1ccc(S(=O)(=O)c2ccc(N)cc2)cc1` [DAPSONE] was tested, and the Hepatotoxicity was “DILI positive (training set)”.
For `CNCCCN1c2ccccc2CCc2ccccc21` [DESIPRAMINE], the Hepatotoxicity was “DILI negative (training set)”.
In the case of `O=C(O)c1cc(-c2ccc(F)cc2F)ccc1O` [DIFLUNISAL], the Hepatotoxicity is reported as “DILI positive (training set)”.
`OCC(S)CS` (configuration not stated) [DIMERCAPROL] was tested, and the Hepatotoxicity was “DILI positive (test set)”.
`c1cc[n+]2c(c1)-c1cccc[n+]1CC2` [DIQUAT] was tested, and the Hepatotoxicity was “DILI positive (test set)”.
For `NCCc1ccc(O)c(O)c1` [DOPAMINE], the Hepatotoxicity was “DILI negative (training set)”.
With `C=C1CC[C@H](O)C/C1=C/C=C1\CCC[C@]2(C)[C@@H]([C@H](C)/C=C/[C@H](C)C(C)C)CC[C@@H]12` [ERGOCALCIFEROL] the Hepatotoxicity was “DILI negative (training set)”.
